This passage reports IC50 results from patent publication US8349824B2, “Triazolopyridine compounds” (Hoffmann-La Roche Inc., priority 2010, dated 2013).

T1 sequence (Q9Y233 1-779 isoform Q9Y233-1): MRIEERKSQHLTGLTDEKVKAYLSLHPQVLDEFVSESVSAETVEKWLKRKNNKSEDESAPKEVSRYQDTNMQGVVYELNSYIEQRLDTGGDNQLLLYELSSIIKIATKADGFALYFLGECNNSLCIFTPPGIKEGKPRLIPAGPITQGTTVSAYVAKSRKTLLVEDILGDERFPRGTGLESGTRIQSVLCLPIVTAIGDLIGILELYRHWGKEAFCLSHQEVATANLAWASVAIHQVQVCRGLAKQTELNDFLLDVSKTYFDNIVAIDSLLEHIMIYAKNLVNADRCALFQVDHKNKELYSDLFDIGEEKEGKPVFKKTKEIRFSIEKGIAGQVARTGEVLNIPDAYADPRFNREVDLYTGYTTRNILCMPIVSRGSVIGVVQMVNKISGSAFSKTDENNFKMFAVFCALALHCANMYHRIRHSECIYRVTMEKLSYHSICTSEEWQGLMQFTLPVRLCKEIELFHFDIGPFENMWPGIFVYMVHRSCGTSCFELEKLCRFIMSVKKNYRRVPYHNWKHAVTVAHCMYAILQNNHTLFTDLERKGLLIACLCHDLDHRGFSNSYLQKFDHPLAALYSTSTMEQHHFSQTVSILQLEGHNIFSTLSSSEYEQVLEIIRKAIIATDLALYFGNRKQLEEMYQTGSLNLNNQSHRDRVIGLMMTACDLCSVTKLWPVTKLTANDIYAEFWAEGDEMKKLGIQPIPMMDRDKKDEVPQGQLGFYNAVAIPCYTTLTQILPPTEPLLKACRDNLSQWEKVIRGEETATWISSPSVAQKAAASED

This assay has as its target T1, human PDE10A full length (Homo sapiens, UniProt Q9Y233).
T1 construct: purchased Enzo Life Science, Lausen, Switzerland SE-534
Kind of assay: PDE10A Scintillation Proximity Assay (SPA), human PDE10A full length assay. Format: biochemical. Particulars: 50 nM cGMP + 50 nM [3H]-cGMP, 20 minutes at room temperature, read-out: PDE10A inhibition IC50. The procedure: The following test was carried out in order to determine the activity of the compounds of the present invention. PDE10 activity of the compounds of the present invention was determined using a Scintillation Proximity Assay (SPA)-based method similar to the one previously described (Fawcett, L. et al., Proc Natl Acad Sci USA (2000) 97(7):3702-3707).
The human PDE10A full length assay was performed in 96-well micro titer plates. The reaction mixture of 50 μl contained 20 mM HEPES pH=7.5/10 mM MgCl2/0.05 mg/ml BSA (Sigma cat. #A-7906), 50 nM cGMP (Sigma, cat. #G6129) and 50 nM [^3H]-cGMP (GE Healthcare, cat. #TRK392 S.A. 13.2Ci/mmol), 3.75 ng/well PDE10A enzyme (Enzo Life Science, Lausen, Switzerland cat #SE-534) with or without a specific test compound. A range of concentrations of the potential inhibitor was used to generate data for calculating the concentration of inhibitor resulting in 50% of the effect (e.g. IC50, the concentration of the competitor inhibiting PDE10A activity by 50%). Non-specific activity was tested without the enzyme. The reaction was initiated by the addition of the substrate solution (cGMP and [^3H]-cGMP) and allowed to progress for 20 minutes at room temperature. The reaction was terminated by adding 25 μl of YSi-SPA scintillation beads (GE Healthcare, cat. #RPNQ0150) in 18 mM zinc sulphate solution (stop reagent). After 1 h under shaking, the plate was centrifuged one minute at 170 g to allow beads to settle. Afterwards, radioactive counts were measured on a Perkin Elmer TopCount Scintillation plate reader.
As usually defined, the IC50 is the midpoint of a concentration-inhibition curve. `COCCN(CCOC)C(=O)c1cnn(C)c1C(=O)Nc1ccn2nc(-c3ccccc3)nc2c1` [Example 6, N4,N4-bis(2-methoxyethyl)-1-methyl-N5-(2-phenyl-[1,2,4]triazolo[1,5-a]pyridin-7-yl)-1H-pyrazole-4,5-dicarboxamide]: the IC50 stood at 0.43 nM.
Take `Cn1ncc(C(=O)N2CCOCC2)c1C(=O)Nc1ccn2nc(-c3ccccc3)nc2c1` [Example 12, 1-Methyl-4-(morpholine-4-carbonyl)-N-(2-phenyl-[1,2,4]triazolo[1,5-a]pyridin-7-yl)-1H-pyrazole-5-carboxamide]: the half-maximal inhibitory concentration (IC50) came out at 0.27 nM.
Next, `CN(CCF)C(=O)c1cnn(C)c1C(=O)Nc1ccn2nc(N3CCOCC3)nc2c1` [Example 21, N4-(2-Fluoroethyl)-N4,1-dimethyl-N5-(2-morpholino-[1,2,4]triazolo[1,5-a]pyridin-7-yl)-1H-pyrazole-4,5-dicarboxamide]: 26.5 nM; `CN(CCF)C(=O)c1cnn(C)c1C(=O)Nc1ccn2nc(-c3ccccc3)nc2c1` [Example 26, 2-Methyl-2H-pyrazole-3,4-dicarboxylic acid 4-[(2-fluoro-ethyl)-methyl-amide]3-[(2-phenyl-[1,2,4]triazolo[1,5-a]pyridin-7-yl)-amide]]: 0.43 nM.
Next, `CC(C)OC(=O)c1cnn(C)c1C(=O)Nc1ccn2nc(-c3ccccc3)nc2c1` [Example 27, Isopropyl 1-methyl-5-(2-phenyl-[1,2,4]triazolo[1,5-a]pyridin-7-ylcarbamoyl)-1H-pyrazole-4-carboxylate]: 7.9 nM; `Cn1ncc(C(=O)N2CCC2)c1C(=O)Nc1ccn2nc(C(=O)NCCC(F)(F)F)nc2c1` [Example 33, 7-(4-(Azetidine-1-carbonyl)-1-methyl-1H-pyrazole-5-carboxamido)-N-(3,3,3-trifluoropropyl)-[1,2,4]triazolo[1,5-a]pyridine-2-carboxamide]: 28.6 nM.
Regarding `Cn1ncc(C(=O)N2CCCC2)c1C(=O)Nc1ccn2nc(N3CCOCC3)nc2c1` [Example 42, 1-Methyl-N-(2-morpholino-[1,2,4]triazolo[1,5-a]pyridin-7-yl)-4-(pyrrolidine-1-carbonyl)-1H-pyrazole-5-carboxamide], the concentration for half-maximal inhibition (IC50) was 5.15 nM.
Next, `Cn1ncc(C(=O)N2CC(F)C2)c1C(=O)Nc1ccn2nc(N3CCOCC3)nc2c1` [Example 43, 4-(3-Fluoroazetidine-1-carbonyl)-1-methyl-N-(2-morpholino-[1,2,4]triazolo[1,5-a]pyridin-7-yl)-1H-pyrazole-5-carboxamide]: 3.77 nM; `CN(C(=O)c1cnn(C)c1C(=O)Nc1ccn2nc(N3CCOCC3)nc2c1)C1CC1` [Example 53, N4-cyclopropyl-N4,1-dimethyl-N5-(2-morpholino-[1,2,4]triazolo[1,5-a]pyridin-7-yl)-1H-pyrazole-4,5-dicarboxamide]: 1.12 nM; `CN(CC(F)(F)F)C(=O)c1cnn(C)c1C(=O)Nc1ccn2nc(N3CCOCC3)nc2c1` [Example 54, 2-Methyl-2H-pyrazole-3,4-dicarboxylic acid 4-[methyl-(2,2,2-trifluoro-ethyl)-amide]3-[(2-morpholin-4-yl-[1,2,4]triazolo[1,5-a]pyridin-7-yl)-amide]]: 80.5 nM.
With `CN(C(=O)c1cnn(C)c1C(=O)Nc1ccn2nc(-c3cccnc3)nc2c1)C1CC1` [Example 55, 2-Methyl-2H-pyrazole-3,4-dicarboxylic acid 4-(cyclopropyl-methyl-amide)3-[(2-pyridin-3-yl-[1,2,4]triazolo[1,5-a]pyridin-7-yl)-amide]], the half-maximal inhibitory concentration (IC50) came to 0.45 nM.
In the case of `CN(C)C(=O)c1nc2cc(NC(=O)c3c(C(=O)N4CCC4)cnn3C)ccn2n1` [Example 62, 7-{[4-(Azetidine-1-carbonyl)-2-methyl-2H-pyrazole-3-carbonyl]-amino}-[1,2,4]triazolo[1,5-a]pyridine-2-carboxylic acid dimethylamide], the IC50 turned out to be 112 nM.
With `COc1ccccc1-c1nc2cc(NC(=O)c3c(C(=O)N4CCOCC4)cnn3C)ccn2n1` [Example 69, 2-Methyl-4-(morpholine-4-carbonyl)-2H-pyrazole-3-carboxylic acid [2-(2-methoxy-phenyl)-[1,2,4]triazolo[1,5-a]pyridin-7-yl]-amide] the figure was 0.68 nM.
Next, `COc1cccc(-c2nc3cc(NC(=O)c4c(C(=O)N5CCC5)cnn4C)ccn3n2)c1` [Example 75, 4-(Azetidine-1-carbonyl)-2-methyl-2H-pyrazole-3-carboxylic acid [2-(3-methoxy-phenyl)-[1,2,4]triazolo[1,5-a]pyridin-7-yl]-amide]: 0.31 nM.
For the molecule `COc1cccc(-c2nc3cc(NC(=O)c4c(C(=O)N5CCOCC5)cnn4C)ccn3n2)c1` [Example 76, 2-Methyl-4-(morpholine-4-carbonyl)-2H-pyrazole-3-carboxylic acid [2-(3-methoxy-phenyl)-[1,2,4]triazolo[1,5-a]pyridin-7-yl]-amide], the half-inhibitory concentration (IC50) was determined as 5.15 nM.
For `COCCN(C)C(=O)c1cnn(C)c1C(=O)Nc1ccn2nc(-c3cccc(OC)c3)nc2c1` [Example 77, 2-Methyl-2H-pyrazole-3,4-dicarboxylic acid 4-[(2-methoxy-ethyl)-methyl-amide]3-{[2-(3-methoxy-phenyl)-[1,2,4]triazolo[1,5-a]pyridin-7-yl]-amide}], the concentration for half-maximal inhibition (IC50) stood at 0.57 nM.
With `COc1cccc(-c2nc3cc(NC(=O)c4c(C(=O)N(C)C)cnn4C)ccn3n2)c1` [Example 78, 2-Methyl-2H-pyrazole-3,4-dicarboxylic acid 4-dimethylamide 3-{[2-(3-methoxy-phenyl)[1,2,4]triazolo[1,5-a]pyridin-7-yl]-amide}] the figure was 0.32 nM.
Next, `CCN(C)C(=O)c1cnn(C)c1C(=O)Nc1ccn2nc(-c3cccc(OC)c3)nc2c1` [Example 79, 2-Methyl-2H-pyrazole-3,4-dicarboxylic acid 4-(ethyl-methyl-amide)3-{[2-(3-methoxy-phenyl)-[1,2,4]triazolo[1,5-a]pyridin-7-yl]-amide}]: 1.73 nM.
With `Cn1ncc(C(=O)N2CCOCC2)c1C(=O)Nc1ccn2nc(-c3cccc(O)c3)nc2c1` [Example 80, 2-Methyl-4-(morpholine-4-carbonyl)-2H-pyrazole-3-carboxylic acid [2-(3-hydroxy-phenyl)-[1,2,4]triazolo[1,5-a]pyridin-7-yl]-amide] the figure was 0.41 nM; with `Cn1ncc(C(=O)N2CCOCC2)c1C(=O)Nc1ccn2nc(-c3cccc(OCCF)c3)nc2c1` [Example 81, 2-Methyl-4-(morpholine-4-carbonyl)-2H-pyrazole-3-carboxylic acid {2-[3-(2-fluoro-ethoxy)-phenyl]-[1,2,4]triazolo[1,5-a]pyridin-7-yl}-amide], 0.59 nM.
On to `Cn1ncc(C(=O)N2CCOCC2)c1C(=O)Nc1ccn2nc(-c3cccc(OCF)c3)nc2c1` [Example 82, 2-Methyl-4-(morpholine-4-carbonyl)-2H-pyrazole-3-carboxylic acid [2-(3-fluoromethoxy-phenyl)-[1,2,4]triazolo[1,5-a]pyridin-7-yl]-amide], for which the IC50 was 0.78 nM.
Next, `CCN(C)C(=O)c1cnn(C)c1C(=O)Nc1ccn2nc(-c3cccc(OCCF)c3)nc2c1` [Example 83, 2-Methyl-2H-pyrazole-3,4-dicarboxylic acid 4-(ethyl-methyl-amide)3-({2-[3-(2-fluoro-ethoxy)-phenyl]-[1,2,4]triazolo[1,5-a]pyridin-7-yl}-amide)]: 0.63 nM; `CCN(C)C(=O)c1cnn(C)c1C(=O)Nc1ccn2nc(-c3cccc(OCF)c3)nc2c1` [Example 84, 2-Methyl-2H-pyrazole-3,4-dicarboxylic acid 4-(ethyl-methyl-amide)3-{[2-(3-fluoromethoxy-phenyl)-[1,2,4]triazolo[1,5-a]pyridin-7-yl]-amide}]: 0.54 nM; `CN(C)C(=O)c1cnn(C)c1C(=O)Nc1ccn2nc(-c3cccc(OCCF)c3)nc2c1` [Example 85, 2-Methyl-2H-pyrazole-3,4-dicarboxylic acid 4-dimethylamide 3-({2-[3-(2-fluoro-ethoxy)-phenyl]-[1,2,4]triazolo[1,5-a]pyridin-7-yl}-amide)]: 0.73 nM.
Regarding `CN(C)C(=O)c1cnn(C)c1C(=O)Nc1ccn2nc(-c3cccc(OCF)c3)nc2c1` [Example 86, 2-Methyl-2H-pyrazole-3,4-dicarboxylic acid 4-dimethylamide 3-{[2-(3-fluoromethoxy-phenyl)-[1,2,4]triazolo[1,5-a]pyridin-7-yl]-amide}], the IC50 turned out to be 0.6 nM.
On to `COCCN(C)C(=O)c1cnn(C)c1C(=O)Nc1ccn2nc(-c3cccc(O)c3)nc2c1` [Example 87, 2-Methyl-2H-pyrazole-3,4-dicarboxylic acid 3-{[2-(3-hydroxy-phenyl)-[1,2,4]triazolo[1,5-a]pyridin-7-yl]-amide} 4-[(2-methoxy-ethyl)-methyl-amide]], for which the IC50 was determined as 0.43 nM.
